In the METLIN SMRT retention time set (Domingo-Almenara et al. 2019) one finds RP-LC retention time data, which are given here for 80 compounds.

The structures appear in SMILES notation.

The series in a line: gradient 5% acetonitrile 3 min, to 50% in 2 min, to 85% in 15 min, held 3 min, 100 µL/min. Particulars: column: Zorbax Extend-C18 2.1 x 50 mm; eluents: water / acetonitrile, 0.1% formic acid. In short, it runs like this:
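Pure standards were run in mixtures of ~100 molecules by HPLC coupled to a quadrupole time-of-flight mass spectrometer. The column was a Zorbax Extend-C18 (2.1 × 50 mm, 1.8 μm) at 100 μL/min, with water and acetonitrile each containing 0.1% formic acid, in positive and negative ionization mode. Dead and dwell volumes were 40 μL and 900 μL. Retention time was taken from computationally picked adduct peaks, each manually inspected, with data collected over 3 months.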
`CC(C)(C)C(=O)Nc1cnc(-c2ccc(Cl)cc2)nc1` gave an RP-LC retention time of 1060 s.

`COc1ccc(NC(=O)C2CCCN(c3ncnc4c3nc3n4CCCCC3)C2)cc1Cl` (stereo not given) had an RP-LC retention time of 828 s.

Compound `Cc1cc(OCC(=O)N[C@@H](Cc2ccccc2)C(=O)O)c2c3c(c(=O)oc2c1)CCC3` had an RP-LC retention time of 835 s.

`COc1ccc(OC)c(NC(=O)Nc2c(-c3ccc(F)cc3)nc3ccccn23)c1` displayed an RP-LC retention time of 625 s.

For `CCN1C=C(C(=O)OCc2ccccc2F)C(C)=NS1(=O)=O`, the RP-LC retention time came to 895 s.

`N#Cc1cccc(-c2nc(-c3ccc4c(c3)nnn4CCN3CCCCC3)no2)c1` showed an RP-LC retention time of 678 s.

In the case of `NC(=O)c1cc2cc(Br)ccc2[nH]1`, the RP-LC retention time amounted to 719 s.

`Cc1nnc(N2CCCC(C(=O)NCc3ccccc3F)C2)c2nn(-c3ccccc3)c(C)c12` (stereo not given) had an RP-LC retention time of 722 s.

In turn, `O=C(CN1C(=O)CCC1=O)N1CCC(c2noc(-c3cnccn3)n2)C1` (stereo not given) gave an RP-LC retention time of 591 s.

Take `O=C(Nc1cnn(-c2ncc(N3CCCC3)cn2)c1)c1ccccc1C(F)(F)F`: the RP-LC retention time came out at 817 s.

`COc1ccc(-c2cn3c(CC(=O)Nc4ccc(OC)c(Cl)c4)csc3n2)cc1` gave an RP-LC retention time of 805 s.

Consider `Clc1ccc(Cc2nnc3sc(-c4ccc5ccccc5n4)nn23)cc1`, for which the RP-LC retention time came to 1210 s.

`CC(C)CCC(=O)N1CCN(c2nc3c(s2)CN(C)CC3)CC1`: the RP-LC retention time stood at 597 s.

Regarding `O=C(CN1C(=O)C(C(=O)N2CCCCC2)Sc2ccccc21)N1CCN(c2ccccn2)CC1` (stereo not given), the RP-LC retention time turned out to be 634 s.

The compound `Cc1ccnc(N2CCCC(C(=O)NCC3CCN(Cc4ccc(Cl)cc4)CC3)C2)n1` (stereo not given) displayed an RP-LC retention time of 624 s.

`O=C(c1ccoc1)N1CCCC1c1nc(C2CCOCC2)no1` (stereo not given): the RP-LC retention time came to 670 s.

Compound `O=c1ccc(N2CCCC(NS(=O)(=O)c3ccc(F)c(F)c3)C2)nn1CC1CC1` (stereo not given) gave an RP-LC retention time of 851 s.

Compound `O=C(NC1CC1)C1COC2(CCN(C(=O)c3cccc(Cl)c3)CC2)N1C(=O)c1cccc(F)c1` (stereo not given) yielded an RP-LC retention time of 738 s.

With `c1ccc(-c2noc(C3CCN(Cc4ccco4)C3)n2)cc1` (stereo not given), the RP-LC retention time was 644 s.

The compound `NC(=O)c1ccc2c(c1)CCCN2C(=O)c1cccc(Cl)c1` showed an RP-LC retention time of 724 s.

With `COc1ccc(OC)c(NC(=O)CSc2cc(N3CCN(c4ccccc4F)CC3)ncn2)c1`, the RP-LC retention time is 1180 s.

For `CCn1c(CCc2ccccc2NS(=O)(=O)c2cc(F)ccc2F)nc2ccccc21`, the RP-LC retention time worked out at 764 s.

With `O=C(CSc1ncccn1)N1CCc2ccccc21`, the RP-LC retention time is 720 s.

`COc1ccc2ncc(S(=O)(=O)c3ccc(C)c(Cl)c3)c(OC)c2c1` returned an RP-LC retention time of 1100 s.

`O=C(O)c1nnn(-c2cccc(F)c2)c1-c1ccccn1` returned an RP-LC retention time of 671 s.

With `COc1cc(OC)c(NC(=O)CCSc2nc3c(=O)n(C)c(=O)n(C)c3n2C)cc1Cl`, the RP-LC retention time came out at 735 s.

Consider `COCc1nc2nccc(-c3ccccc3)n2n1`, for which the RP-LC retention time was determined as 672 s.

As for `O=c1c2scc(-c3ccc(F)cc3)c2ncn1Cc1ccc(Br)cc1`, the RP-LC retention time is 1180 s.

In the case of `Cc1ccc(C2NC(=O)N(CC(=O)Nc3ccc4c(c3)CCC4)C3=C2C(=O)OC3)cc1` (stereo not given), the RP-LC retention time turned out to be 856 s.

`Cc1nc(C)c(-c2nnc(NC(=O)C3CC(=O)N(c4ccc(F)cc4)C3)o2)s1` (stereo not given) came in with an RP-LC retention time of 652 s.

The compound `CCOc1ccc(N2CC(c3nc(-c4ccccc4Cl)no3)CC2=O)cc1` (stereo not given) came in with an RP-LC retention time of 1000 s.

Regarding `O=C(CCc1nnc2c3cc(-c4ccc(Cl)cc4)nn3ccn12)N1CCN(c2ccccn2)CC1`, the RP-LC retention time worked out at 955 s.

The compound `CSc1ccc(CNC(=O)c2[nH]c3cc(C)sc3c2CN(C)C)cc1` came in with an RP-LC retention time of 689 s.

As for `Cc1nnc2c(NC(=O)c3cnccn3)cccn12`, the RP-LC retention time amounted to 600 s.

As for `CCOC(=O)c1noc2ncnc(NCCc3ccc(Cl)cc3)c12`, the RP-LC retention time worked out at 1110 s.

For the compound `COc1ccc(-c2noc(C3CC(=O)N(c4ccc5c(c4)OCO5)C3)n2)cc1OC` (stereo not given), the RP-LC retention time was found to be 886 s.

`Cc1ccc(S(=O)(=O)NCC(=O)Nc2ccc3c(c2)Cc2ccccc2-3)cc1` yielded an RP-LC retention time of 975 s.

Take `CC(C)Cn1cc(CCNC(=O)c2cc3ccccc3[nH]2)c2cccnc21`: the RP-LC retention time was 850 s.

`COc1c(C(=O)NC(C)C)sc2cc(Cl)ccc12` yielded an RP-LC retention time of 1060 s.

With `O=C(Cn1cnc2onc(-c3ccc(F)cc3)c2c1=O)N1CCCc2ccccc21`, the RP-LC retention time turned out to be 1040 s.

Turning to `CC1Oc2ccc(-c3csc(NC(=O)C4CCCCC4)n3)cc2N(C)C1=O` (stereo not given), the RP-LC retention time was 1040 s.

Turning to `O=C(NC1(c2nc(-c3ccccn3)no2)CCCCC1)c1ccccc1`, the RP-LC retention time was 848 s.

Take `COC(=O)c1cc(C)nc2c1c(=O)n(Cc1cccc(C)c1)c(=O)n2Cc1ccco1`: the RP-LC retention time was 1170 s.

In turn, `CCOC(=O)c1c(C)c(C(=O)Nc2cc(Cl)ccc2OC)c(C)n1CC` yielded an RP-LC retention time of 1180 s.

Turning to `COc1ccc(C(=O)Nc2cc(-c3cccnc3)no2)c(C)c1`, the RP-LC retention time is 760 s.

In turn, `CC(=O)N1CCCc2ccc(NC(=O)Cc3ccc(Cl)cc3)cc21` had an RP-LC retention time of 816 s.

`O=c1ccn(-c2cccc(F)c2)nc1-c1nc(-c2ccc(F)c(Br)c2)no1` showed an RP-LC retention time of 1040 s.

The compound `COc1ccc(Br)c2c1-c1nc(NC(=O)c3ccccc3F)sc1C2` had an RP-LC retention time of 1130 s.

Compound `Cc1nc(C#Cc2ccnc(Cl)c2)c(C)n1-c1ccc(OC(F)(F)F)cc1` gave an RP-LC retention time of 898 s.

For `CCc1nccn1Cc1nc(-c2cccc(Br)c2)no1`, the RP-LC retention time is 685 s.

Consider `O=C(NC1CCN(c2cc(-c3cccs3)[nH]n2)C1)c1ccccc1Br` (stereo not given), for which the RP-LC retention time is 705 s.

Compound `CC(C)n1c(=O)c(Nc2cc(F)cc(F)c2)nc2ccncc21` had an RP-LC retention time of 719 s.

For `O=C(NCc1cccc(F)c1)C1CCCN(c2cnc3nccnc3c2)C1` (stereo not given), the RP-LC retention time turned out to be 702 s.

In the case of `CCOC(=O)C1=C(N)Oc2c(c(=O)[nH]c3ccc(C)cc23)C1c1ccc(OC)cc1` (stereo not given), the RP-LC retention time was 881 s.

As for `CN(C)c1ccc(C(=O)Nc2cc(-c3cccnc3)no2)cc1`, the RP-LC retention time worked out at 738 s.

For `CCc1ccc(N2CC(c3nc4ccccc4n3CC(=O)N3CCCC3)CC2=O)cc1` (stereo not given), the RP-LC retention time turned out to be 739 s.

`Cc1ccc2c(c1)N(Cc1ccccc1F)N=C(C(=O)N1CCC(C)CC1)S2(=O)=O` displayed an RP-LC retention time of 1090 s.

For `O=C(NC1CCCCCC1)c1cn(-c2cc(-c3nc(C4CC4)no3)ccn2)cn1`, the RP-LC retention time worked out at 1040 s.

The compound `Cc1nc(OCC(=O)NCCN2CCCC2)c2c(-c3ccccc3)noc2n1` had an RP-LC retention time of 627 s.

Compound `COc1cccc(NC(=O)N2CCC(c3nc4ccncc4n3C(C)C)C2)c1` (stereo not given) yielded an RP-LC retention time of 535 s.

`Cc1ccc(NC(=O)Cn2c(C)nc3c(sc4nc(-c5ccccc5)ccc43)c2=O)c(C)c1` had an RP-LC retention time of 1090 s.

In turn, `COc1ccc2c(c1)C1(CCN(S(=O)(=O)c3ccc(OC)c(OC)c3)C1)C(=O)N2` (stereo not given) showed an RP-LC retention time of 757 s.

`Clc1nnc(NC2CCCCC2)c(Cl)c1Cl` gave an RP-LC retention time of 1200 s.

`CCCn1cnc2cc(CNC(=O)c3cc4ccccc4[nH]3)ccc21` came in with an RP-LC retention time of 659 s.

The compound `O=C(Nc1ccccc1)C12CC1/C(=N\O)c1ccccc1O2` (stereo not given) registered an RP-LC retention time of 825 s.

Compound `CN(C)C(=O)c1csc(S(=O)(=O)N2CCC(C(=O)N3CCc4ccccc43)CC2)c1` gave an RP-LC retention time of 809 s.

The compound `CCn1cc(C)c(C(=O)O)c1CC(=O)Nc1cc(F)ccc1F` registered an RP-LC retention time of 859 s.

`COCCN(CC(=O)N1CCc2sccc2C1COc1cccc(F)c1)C(=O)C(C)C` (stereo not given) had an RP-LC retention time of 912 s.

`Cc1cccc(N2CCN(C(=O)c3ccc(Cn4cncn4)cc3)CC2C)c1` (stereo not given): the RP-LC retention time stood at 676 s.

Compound `Cc1sc(-c2cc(C(F)(F)F)[nH]n2)cc1S(=O)(=O)NCCc1cccs1` gave an RP-LC retention time of 990 s.

In turn, `CC(C)n1c(=O)sc2cc(S(=O)(=O)N3CCC(C(=O)NCc4ccccn4)CC3)ccc21` yielded an RP-LC retention time of 660 s.

Compound `CCCN1C(=O)C(CC(=O)NC(C)C)Sc2ncccc21` (stereo not given) returned an RP-LC retention time of 680 s.

For `O=C(Cn1c(=O)cc(-c2nc(C3CC3)no2)c2ccccc21)Nc1ccc2c(c1)OCO2`, the RP-LC retention time was 908 s.

As to `Cc1cc(C(=O)Nc2ccc3c(c2)C(=O)N(C)CCO3)no1`, the RP-LC retention time was 624 s.

Consider `Cc1ccc(NC(=O)CSc2ccc(N3CCCC(C(=O)NC4CC4)C3)nn2)c(C)c1` (stereo not given), for which the RP-LC retention time came out at 625 s.

Compound `CN(CCc1ccccn1)C(=O)c1cn2ccnc(-c3ccccc3)c2n1` had an RP-LC retention time of 563 s.

`CCN(C(=O)c1ccc2c(c1)OCO2)c1nc(-c2ccccc2)cs1` returned an RP-LC retention time of 1200 s.

On to `Cc1ccc(-c2nnc(Cc3nc(-c4ccncc4)no3)o2)cc1C`, for which the RP-LC retention time came out at 850 s.

Regarding `COc1ccc(C2C(C(=O)Nc3ccc4c(c3)OCO4)c3ccccc3C(=O)N2C)cc1` (stereo not given), the RP-LC retention time turned out to be 835 s.

`Cc1c(CCC(=O)N2CCC(C(N)=O)CC2)c(=O)oc2cc3oc4c(c3cc12)CCCC4` gave an RP-LC retention time of 795 s.
